# Laboratory results taken from patent US20230131376A1, “ADJUVANT-ANTIBIOTIC COMBINATION AGAINST GRAM-NEGATIVE BACTERIA” (University of Notre Dame du Lac, priority 2020, published 2023).
# What was measured:
# [1] = tested on: mcr-1 plasmid containing E. coli, K. pneumoniae, and A. baumannii; assay: Colistin potentiation stated for all three mcr-1 strains together
# K. pneumoniae B9 = assay: Colistin potentiation, chromosomally colistin resistant K. pneumoniae B9; assay type: cell-based; settings: K. pneumoniae B9
# Excerpt: (§1) Broth microdilution method for antibiotic potentiation.
# A. baumannii 3941 = assay: Colistin potentiation, chromosomally colistin resistant A. baumannii 3941; assay type: cell-based
# Excerpt: as §1
# K. pneumoniae C3 = assay: Colistin potentiation, chromosomally colistin resistant K. pneumoniae C3; assay type: cell-based
# Excerpt: as §1
# A. baumannii 4106 = assay: Colistin potentiation, chromosomally colistin resistant A. baumannii 4106; assay type: cell-based
# Excerpt: as §1
# 4T1 cells = assay: MTT cell viability assay; assay type: cell-based, mouse; settings: 4T1 cells, 18 h, concentration giving 50% cell viability; for CT50, Compound + colistin: with 1 μg/mL colistin; for CT50, Compound alone: without colistin
# Experimental: MTT Cell Viability Assay. 4T1 cells (ATCC Manassas, Va.) were plated at a density of 1×10^4 cells/well in 96-well plates. (Roswell Park Memorial Institute Media 1640, Gibco, Gaithersburg, Md.) supplemented with 10% Fetal Bovine Serum (Gibco), 2 mM GlutaMAX (Gibco) and 50 μM 2-mercaptoethanol (Sigma Aldrich St. Louis, Mo.) and incubated at 37° C. under a 5% CO2 atmosphere in the dark for 18 h. Cell cultures were treated with serial dilutions of compounds in the presence or absence of 1 μg/mL colistin (3 replicates per condition) and incubated for an additional 18 hours. The following control conditions were used: media only (blank), 1% Triton X100 (0% cell viability), 0.5% DMSO (100% cell viability). Each condition was then treated with 10% volume of a 5 mg/mL solution of 3-(4,5-dimethylthiazol-2-yl)-2,5-diphenyltetrazolium bromide (MTT) (Sigma Aldrich) in sterile filtered 1× phosphate buffered saline (PBS) and incubated for 2 h. at 37° C. in 5% CO2, after which the media was aspirated and the resulting formazan crystals were resuspended in 100 μL acidified (4 mM HCl) isopropanol. The 96-well plate was then read at 540 nm on a FLUOstar Optima (BMG Labtech Cary, N.C.) microplate reader. Cell viability was calculated as a percentage using the two previously mentioned controls.
# [2] = tested on: several MDR Gram-negative bacterial strains; settings: cited from earlier work
# [3] = adjuvant at 15 μM, susceptibility breakpoint 2 μg/mL
smiles,measurement,setting,value
"O=C(NCCc1c[nH]c2ccccc12)Nc1cc(Br)cc(Br)c1 [Compound 8b, 1-(2-(1H-indol-3-yl)ethyl)-3-(3,5-dibromophenyl)urea]","colistin MIC with adjuvant, all three mcr-1 strains",[1]; [3],lowered the colistin MIC to the susceptibility breakpoint
same,colistin MIC with adjuvant,K. pneumoniae B9; adjuvant at 7.5 μM,4 µg/mL
same,colistin MIC with adjuvant,K. pneumoniae B9; adjuvant at 8 μM,32 µg/mL
same,colistin MIC with adjuvant,K. pneumoniae B9; adjuvant at 10 μM,1 µg/mL
same,colistin MIC with adjuvant,K. pneumoniae B9; adjuvant at 15 μM,0.5 µg/mL
same,colistin MIC with adjuvant,A. baumannii 3941; adjuvant at 10 μM,16 µg/mL
same,colistin MIC with adjuvant,A. baumannii 3941; adjuvant at 15 μM,8 µg/mL
same,colistin MIC with adjuvant,A. baumannii 3941; adjuvant at 20 μM,8 µg/mL
same,colistin MIC with adjuvant,K. pneumoniae C3; adjuvant at 10 μM,8 µg/mL
same,colistin MIC with adjuvant,K. pneumoniae C3; adjuvant at 15 μM,4 µg/mL
same,colistin MIC with adjuvant,K. pneumoniae C3; adjuvant at 20 μM,2 µg/mL
same,colistin MIC with adjuvant,A. baumannii 4106; adjuvant at 10 μM,8 µg/mL
same,colistin MIC with adjuvant,A. baumannii 4106; adjuvant at 15 μM,4 µg/mL
same,colistin MIC with adjuvant,A. baumannii 4106; adjuvant at 20 μM,4 µg/mL
same,"CT50, Compound + colistin",4T1 cells,64.2 µM
same,"CT50, Compound alone",4T1 cells,86.2 µM
"O=C(NCCc1c[nH]c2ccccc12)Nc1ccc(Cl)c(Cl)c1 [Compound 8d, 1-(2-(1H-indol-3-yl)ethyl)-3-(3,4-dichlorophenyl)urea]","CT50, Compound + colistin",4T1 cells,104.8 µM
same,"CT50, Compound alone",4T1 cells,117.3 µM
"CC(C)n1cc(-c2cccc(NC(=O)Nc3cc(Cl)c(Br)c(Cl)c3)c2)nc1N [Compound 14, reference compound]","CT50, Compound + colistin",4T1 cells,15.6 µM
same,"CT50, Compound alone",4T1 cells,23.2 µM
O=C(NCCc1c[nH]c2ccccc12)c1cc(Cl)c(Cl)[nH]1 [Compound 2],ability to potentiate colistin activity,[2],demonstrated the ability to potentiate colistin activity
CCNc1nccc(-c2c[nH]c3ccc(Br)cc23)n1 [Compound 4],ability to potentiate colistin activity,[2],demonstrated the ability to potentiate colistin activity
"O=C(NCCc1c[nH]c2ccccc12)c1ccc(Cl)c(Cl)c1 [Compound 1d, N-(2-(1H-indol-3-yl)ethyl)-3,4-dichlorobenzamide]","colistin MIC with adjuvant, all three mcr-1 strains",[1]; adjuvant at 50 μM,2 µg/mL
same,"fold reduction of colistin MIC, all mcr-1 containing strains",[1]; adjuvant at 50 μM,4-8 fold
CC(C)n1cc(-c2cccc(NC(=O)Nc3cc(Br)cc(Br)c3)c2)nc1N [Compound 3],ability to potentiate colistin activity,[2],demonstrated the ability to potentiate colistin activity
"O=C(NCCc1c[nH]c2ccccc12)Nc1cc(C(F)(F)F)cc(C(F)(F)F)c1 [Compound 8c, 1-(2-(1H-indol-3-yl)ethyl)-3-(3,5-bis(trifluoromethyl)phenyl)urea]","colistin MIC with adjuvant, all three mcr-1 strains",[1]; [3],lowered the colistin MIC to the susceptibility breakpoint
same,"CT50, Compound + colistin",4T1 cells,61.8 µM
same,"CT50, Compound alone",4T1 cells,60.5 µM
"O=C(NCCc1c[nH]c2ccc(Br)cc12)Nc1ccc(Cl)c(Cl)c1 [Compound 9d, 1-(2-(5-bromo-1H-indol-3-yl)ethyl)-3-(3,4-dichlorophenyl)urea]",colistin MIC with adjuvant,K. pneumoniae B9; adjuvant at 5 μM,8 µg/mL
same,colistin MIC with adjuvant,K. pneumoniae B9; adjuvant at 7.5 μM,2 µg/mL
same,colistin MIC with adjuvant,K. pneumoniae B9; adjuvant at 10 μM,1 µg/mL
same,colistin MIC with adjuvant,K. pneumoniae B9; adjuvant at 15 μM,0.5 µg/mL
same,colistin MIC with adjuvant,A. baumannii 3941; adjuvant at 10 μM,8 µg/mL
same,colistin MIC with adjuvant,A. baumannii 3941; adjuvant at 15 μM,4 µg/mL
same,colistin MIC with adjuvant,A. baumannii 3941; adjuvant at 20 μM,2 µg/mL
same,colistin MIC with adjuvant,K. pneumoniae C3; adjuvant at 10 μM,4 µg/mL
same,colistin MIC with adjuvant,K. pneumoniae C3; adjuvant at 15 μM,2 µg/mL
same,colistin MIC with adjuvant,K. pneumoniae C3; adjuvant at 20 μM,1 µg/mL
same,colistin MIC with adjuvant,A. baumannii 4106; adjuvant at 10 μM,4 µg/mL
same,colistin MIC with adjuvant,A. baumannii 4106; adjuvant at 15 μM,2 µg/mL
same,colistin MIC with adjuvant,A. baumannii 4106; adjuvant at 20 μM,2 µg/mL
same,"CT50, Compound + colistin",4T1 cells,84.6 µM
same,"CT50, Compound alone",4T1 cells,125.5 µM
"O=C(NCCc1c[nH]c2ccccc12)Nc1cc(Cl)c(Br)c(Cl)c1 [Compound 8e, 1-(2-(1H-indol-3-yl)ethyl)-3-(4-bromo-3,5-dichlorophenyl)urea]","colistin MIC with adjuvant, all three mcr-1 strains",[1]; [3],lowered the colistin MIC to the susceptibility breakpoint
